According to article PMC10969092, “Characterization of Lysophospholipase D Activity in Mammalian Cell Membranes” (Cells, 2024):
pEC50: −log10 of the molar value. Like-named read-outs stand apart in the source and are kept apart here. Each block holds one compound with its values, some of them ahead of it.

Experiments:
lyso-PLD [1] = format: biochemical, human; conditions: PC-3 membranes; for pEC50: single-site competition fit, read-out: EC50 for inhibiting B-lyso-PC conversion to B-LPA; for Ability to compete with B-lyso-PC for utilization by lyso-PLD: up to 4.6 mM
PLD [2] = target: T1, PLD (Rattus norvegicus, UniProt P70498); test: In vitro fluorescent PLD assay in cell membranes (B-PC substrate with butanol, B-PBt product); format: biochemical
T1 construct: PC12K membranes were incubated with either B-PC (for PLD assay) or commercial B-lyso-PC (for lyso-PLD assay); endogenous in cells; host or cells: PC12K and A7r5 cell membranes (100,000 x g pellet)
T1 sequence (P70498 whole entry): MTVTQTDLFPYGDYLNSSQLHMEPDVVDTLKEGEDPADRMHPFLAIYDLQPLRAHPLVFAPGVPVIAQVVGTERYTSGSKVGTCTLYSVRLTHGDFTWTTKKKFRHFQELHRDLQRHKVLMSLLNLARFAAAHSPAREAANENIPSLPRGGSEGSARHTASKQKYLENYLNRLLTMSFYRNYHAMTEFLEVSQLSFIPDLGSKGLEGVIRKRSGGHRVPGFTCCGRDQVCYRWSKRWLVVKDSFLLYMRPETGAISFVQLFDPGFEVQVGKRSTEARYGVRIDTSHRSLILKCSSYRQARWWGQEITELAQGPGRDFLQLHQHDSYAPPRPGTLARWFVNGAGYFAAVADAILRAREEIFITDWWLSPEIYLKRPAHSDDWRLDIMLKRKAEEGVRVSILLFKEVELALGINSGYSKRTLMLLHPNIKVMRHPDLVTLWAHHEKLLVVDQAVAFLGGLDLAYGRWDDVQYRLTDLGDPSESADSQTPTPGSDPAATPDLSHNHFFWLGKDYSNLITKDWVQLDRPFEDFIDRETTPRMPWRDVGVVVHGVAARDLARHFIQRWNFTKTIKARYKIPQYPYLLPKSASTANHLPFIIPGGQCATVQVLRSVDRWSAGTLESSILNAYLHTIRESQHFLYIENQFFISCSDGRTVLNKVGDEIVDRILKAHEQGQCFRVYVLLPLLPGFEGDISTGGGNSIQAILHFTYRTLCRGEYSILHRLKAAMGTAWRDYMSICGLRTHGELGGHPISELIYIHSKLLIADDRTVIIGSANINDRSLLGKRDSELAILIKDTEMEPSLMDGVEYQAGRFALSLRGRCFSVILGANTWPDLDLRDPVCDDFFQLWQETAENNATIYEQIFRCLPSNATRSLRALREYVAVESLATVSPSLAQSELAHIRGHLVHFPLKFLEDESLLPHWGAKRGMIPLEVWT

lyso-PLD [3] = test: In vitro membrane lyso-PLD assay (B-lyso-PC substrate, B-LPA product); format: biochemical, rat
PLD [4] = test: PLD activity in intact cells; format: cell-based; conditions: multiple cell types, varying experimental conditions
PLC from Bacillus cereus = conditions: cited from earlier work
cabbage PLD = conditions: cited from earlier work
PLD [5] = system: PLD; design: method as in PMID 9655185; conditions: cited from earlier work

Compound: CCCCCCCC/C=C\CCCCCCCC(=O)OC[C@@H](O)COP(=O)([O-])OCC[N+](C)(C)C [C18:1-lyso-PC]
- pEC50 (lyso-PLD [1]): ~3.52

Compound: O=[N+]([O-])c1ccc(OP(=O)(O)O)cc1 [para-nitrophenol phosphate]
- Inhibition of PLD in screening assays (PLD [2]): did not inhibit PLD

Compound: CCCCCCCCCCCCCCCC(=O)OC[C@@H](O)COP(=O)([O-])OCC[N+](C)(C)C [C16-lyso-PC]
- pEC50 (lyso-PLD [1]): ~3.52

Compound: [Na+].[Na+].[O]=[Mo](=[O])([O-])[O-] [sodium molybdate]
- Inhibition of PLD in screening assays (PLD [2]; concentrations of 1–10 mM): did not inhibit PLD

Compound: Nc1ncnc2c1ncn2[C@@H]1O[C@H](COP(=O)(O)OP(=O)(O)OP(=O)(O)O)[C@@H](O)[C@H]1O [ATP]
- Stimulation of lyso-PLD activity (lyso-PLD [3]): did not stimulate lyso-PLD activity

- Inhibition of PLD in screening assays (PLD [2]; concentrations of 1–10 mM): did not inhibit PLD
Compound: O=C([O-])C(=O)[O-].[K+].[K+] [potassium oxalate]

Compound: sodium orthovanadate
- B-PBt levels in kinetic study (PLD [2]; 1 mM added after 10 min, PC12K membranes, B-PC substrate): B-PBt levels declined
- Effect on PLD activity (production of B-PBt) (PLD [2]; 1 mM, A7r5 membranes, B-PC substrate): profound inhibition of PLD activity
- Effect on lyso-PLD activity (B-LPA from B-lyso-PC) (lyso-PLD [3]): did not inhibit
- Production of LPA in kinetic study (lyso-PLD [3]): not significantly affected
- Inhibition of PLD in intact cells (PLD [4]): failed to show that vanadate, pervanadate, or iodate inhibits PLD
- B-lyso-PBt production in kinetic study (PLA2): continued but at a reduced rate
- Effect on PLA2 activity (generation of B-lyso-PC and B-lyso-PBt from B-PC) (PLA2): did not inhibit
- lyso-PC accumulation in kinetic study (PLA2): did not affect lyso-PC accumulation
- Inhibition of PLC from Bacillus cereus (PLC from Bacillus cereus): inhibit a PLC from Bacillus cereus
- Direct inhibition of cabbage PLD (cabbage PLD): directly inhibit cabbage PLD

Compound: O=S(=O)([O-])[O-].[Cu+2] [copper sulfate]
- Inhibition of PLD in screening assays (PLD [2]): did not inhibit PLD

- Inhibition of PLD in screening assays (PLD [2]; concentrations of 1–10 mM): did not inhibit PLD
Compound: O=C([O-])C(=O)[O-].[Na+].[Na+] [sodium oxalate]

Compound: pervanadate
- Inhibition of PLD in intact cells (PLD [4]): failed to show that vanadate, pervanadate, or iodate inhibits PLD
- Effect on PLD in intact endothelial cells (PLD [5]): activate PLD

- Effect on PLD activity (PLD [2]; 8%, cell line not stated): completely inhibited
Compound: C[S+](C)[O-] [dimethylsulfoxide]
- Effect on lyso-PLD activity (lyso-PLD [3]; 8%, cell line not stated): relatively insensitive

Compound: lyso-phosphatidylethanol
- Ability to compete with B-lyso-PC for utilization by lyso-PLD (lyso-PLD [1]): least effective

Compound: CCCCCCCCCCCCCCCCCCOC[C@@H](O)COP(=O)([O-])OCC[N+](C)(C)C [C18-lyso-PAF]
- pEC50 (lyso-PLD [1]): ~3.40

Compound: O=S(=O)([O-])[O-].[Mg+2] [magnesium sulfate]
- Inhibition of PLD in screening assays (PLD [2]): did not inhibit PLD

Compound: CCCCCCCCCCCCCCCCOC[C@@H](O)COP(=O)([O-])OCC[N+](C)(C)C [C16-lyso-PAF]
- pEC50 (lyso-PLD [1]): ~3.40

Compound: sodium tungstate
- Inhibition of PLD in screening assays (PLD [2]; concentrations of 1–10 mM): did not inhibit PLD

Compound: O=S(=O)([O-])[O-].[Zn+2] [zinc sulfate]
- Inhibition of PLD in screening assays (PLD [2]): did not inhibit PLD

Compound: O=P(O)(O)OC(CO)CO [β-glycerophosphate]
- Inhibition of PLD in screening assays (PLD [2]): did not inhibit PLD

Compound: CCCCCCCCCCCCCCCCCC(=O)OC[C@@H](O)COP(=O)([O-])OCC[N+](C)(C)C [C18-lyso-PC]
- pEC50 (lyso-PLD [1]): ~3.52

Compound: [Cl-].[Cl-].[Mg+2] [magnesium chloride]
- Inhibition of PLD in screening assays (PLD [2]): did not inhibit PLD
- Stimulation of lyso-PLD activity (lyso-PLD [3]): did not stimulate lyso-PLD activity

Compound: Lyso-phosphatidylserine
- Ability to compete with B-lyso-PC for utilization by lyso-PLD (lyso-PLD [1]): poor competitor
